From paper PMC9154192 (PLoS Biology, 2022)
In brackets after ≈: the same amount, converted by molar mass. Several values for one entry are separate records, joined by “and”; a condition that tells them apart may be missing. Identical values can stand only once. Like-named read-outs stand apart in the source and are kept apart here.

Tests used:
M. tuberculosis H37Rv = assay: microbe, parasite or virus in culture; format: cell-based, Mycobacterium tuberculosis; conditions: for MIC: Mycobacterium tuberculosis, H37RV, read-out: MIC; for SI (CC50/MIC): ratio of CC50 for L929 fibroblasts to MIC for strain H37Rv
M. tuberculosis H37Ra = assay: microbe, parasite or virus in culture; format: cell-based, Mycobacterium tuberculosis; conditions: Mycobacterium tuberculosis, H37RA
in vitro = format: cell-based, murine; conditions: mouse
Procedure: A549 human pulmonary epithelial cells (KCLB 10185), human embryonic kidney (HEK) 293 cells (KCLB 21573), human THP-1 leukemia cells (KCLB 40202), human neuroblastoma SH-SY5Y cells (KCLB 22266), Murine Raw 264.7 macrophages (KCLB 40071), and L929 murine fibroblasts (KCLB 10001) were purchased from the KCLB (Seoul, Korea). Cytotoxicity testing was performed using the MTT assay and the WST-1 cell viability assay as previously described.

[1] = test system: clinically isolated MDR, XDR, and TDR M. tuberculosis strains; assay: microbe, parasite or virus in culture; format: cell-based; conditions: Mycobacterium tuberculosis
M. abscessus = assay: microbe, parasite or virus in culture; format: cell-based, Mycobacterium abscessus; conditions: Mycobacteroides abscessus
M. arupense = assay: microbe, parasite or virus in culture; format: cell-based, Mycobacterium arupense; conditions: Mycolicibacter arupensis
M. aubagnense = assay: microbe, parasite or virus in culture; format: cell-based, Mycobacterium aubagnense; conditions: Mycolicibacterium aubagnense
M. avium = assay: microbe, parasite or virus in culture; format: cell-based; conditions: Mycobacterium avium
M. bolletii = assay: microbe, parasite or virus in culture; format: cell-based, Mycobacterium bolletii; conditions: Mycobacteroides abscessus
M. bovis = assay: microbe, parasite or virus in culture; format: cell-based; conditions: Mycobacterium tuberculosis variant bovis
M. chitae = assay: microbe, parasite or virus in culture; format: cell-based, Mycobacterium chitae; conditions: Mycolicibacterium chitae
M. colombiense = assay: microbe, parasite or virus in culture; format: cell-based; conditions: Mycobacterium colombiense
M. conceptionense = assay: microbe, parasite or virus in culture; format: cell-based, Mycobacterium conceptionense; conditions: Mycolicibacterium senegalense
M. fortuitum = assay: microbe, parasite or virus in culture; format: cell-based, Mycobacterium fortuitum; conditions: Mycolicibacterium fortuitum
M. gilvum = assay: microbe, parasite or virus in culture; format: cell-based, Mycobacterium gilvum; conditions: Mycolicibacterium gilvum
M. goodie = assay: microbe, parasite or virus in culture; format: cell-based; conditions: Mycobacterium
M. gordonae = assay: microbe, parasite or virus in culture; format: cell-based; conditions: Mycobacterium gordonae
M. heraklionease = assay: microbe, parasite or virus in culture; format: cell-based; conditions: Mycobacterium
M. intracellulare = assay: microbe, parasite or virus in culture; format: cell-based; conditions: Mycobacterium intracellulare
M. kansasii = assay: microbe, parasite or virus in culture; format: cell-based; conditions: Mycobacterium kansasii
M. kyorinense = assay: microbe, parasite or virus in culture; format: cell-based; conditions: Mycobacterium kyorinense
M. marinum = assay: microbe, parasite or virus in culture; format: cell-based; conditions: Mycobacterium marinum
M. marseiliense = assay: microbe, parasite or virus in culture; format: cell-based; conditions: Mycobacterium
M. massiliense = assay: microbe, parasite or virus in culture; format: cell-based, Mycobacterium massiliense; conditions: Mycobacteroides abscessus
M. neoaurum = assay: microbe, parasite or virus in culture; format: cell-based, Mycobacterium neoaurum; conditions: Mycolicibacterium neoaurum
M. peregrinum = assay: microbe, parasite or virus in culture; format: cell-based, Mycobacterium peregrinum; conditions: Mycolicibacterium peregrinum
M. phlei = assay: microbe, parasite or virus in culture; format: cell-based, Mycobacterium phlei; conditions: Mycolicibacterium phlei
M. phocaicum = assay: microbe, parasite or virus in culture; format: cell-based, Mycobacterium phocaicum; conditions: Mycolicibacterium phocaicum
M. smegmatis = assay: microbe, parasite or virus in culture; format: cell-based, Mycobacterium smegmatis; conditions: Mycolicibacterium smegmatis
M. szulgai = assay: microbe, parasite or virus in culture; format: cell-based; conditions: Mycobacterium szulgai
M. xenopi = assay: microbe, parasite or virus in culture; format: cell-based; conditions: Mycobacterium xenopi
[2] = format: cell-based; conditions: positive control, absence of S9 mix
intestinal microbiome = assay: Gut microbiome, 16s rRNA gene-based metagenomics analysis of feces; format: in vivo, BALB/c mice; conditions: 30 mg/kg oral once a day for 7 days, BALB/c mice, feces
Procedure: Six-week-old BALB/c female mice were used for this study (6 mice for each group). Each drug was administered orally at 30 mg/kg once daily for 7 days. Stool was collected, and 16 rRNA gene-based metagenomics analysis was performed. Corn oil was used as the vehicle. The drug-free group received corn oil only. This animal experiment was conducted with the approval of the IACUC of the Soonchunhyang University (approval number: SCH21-0011). Microbiome analysis of collected feces was carried out as previously described with some modifications. Total DNA was extracted from the stool using the QIAamp DNA stool mini kit (Qiagen, Germany) after mechanical disruption using lysing matrix B tubes (MP Biomedicals, USA). V4 region of 16S RNA gene was amplified from extracted DNA with the following primers: forward primer ([…]) and reverse primer ([…]). PCR was performed using the Kappa HiFi hot start kit (KAPA Biosystems, USA) for 16s gene amplification and library preparation. A dsDNA HS assay kit and Qubit 4 fluorimeter (Invitrogen, USA) were used for DNA quantification. After each step, quality was checked using Agilent High Sensitivity DNA Kit and Agilent Bioanalyzer 2100 (Agilent Technologies, USA). Clean-up was performed using AMPure XP beads (Beckman Coulter, UK). The metagenomic library was prepared using a Nextera XT DNA Library Prep Kit (Illumina, USA) and loaded into an iSeq-100 reagent cartridge (Illumina, USA) together with a PhiX Control library (Illumina, USA). A 300-bp paired-end sequencing was performed on an iSeq-100 platform (Illumina, USA). Sequencing data were analyzed using the EzBioCloud server (Chunlab, Korea).

CCCCOc1ccc2cc(C(=O)OC)c3cc(OC)c(OC)cc3c2c1 [DPGA10]
MIC (M. tuberculosis H37Rv): > 100 µg/mL
SI (CC50/MIC) (M. tuberculosis H37Rv): <0.2
MIC (M. tuberculosis H37Ra): > 100 µg/mL
CC50 (in vitro; L929, MTT assay (Table S1)): 21.5 µg/mL (≈ 58.4 µM)
CC50 (in vitro; RAW, MTT assay (Table S1)): > 100 µg/mL

CCCCOc1ccc2cc(CO)c3cc(OC)c(OC)cc3c2c1 [DPGA11]
MIC (M. tuberculosis H37Rv): > 100 µg/mL
SI (CC50/MIC) (M. tuberculosis H37Rv): <0.7
MIC (M. tuberculosis H37Ra): > 100 µg/mL
CC50 (in vitro; L929, MTT assay (Table S1)): 73.7 µg/mL (≈ 216 µM)
CC50 (in vitro; RAW, MTT assay (Table S1)): > 100 µg/mL

CC[C@@H](CO)NCCN[C@@H](CC)CO [EMB, ethambutol]
MIC (M. tuberculosis H37Rv): 1.6 µg/mL (≈ 7.83 µM)
MIC ([1]; TDR-1): 6.3 µg/mL (≈ 30.8 µM)
MIC ([1]; TDR-2): 6.3 µg/mL (≈ 30.8 µM)
MIC ([1]; TDR-3): 6.3 µg/mL (≈ 30.8 µM)
MIC (M. abscessus): 100 µg/mL (≈ 489 µM)
MIC (M. arupense): 0.4 µg/mL (≈ 1.96 µM)
MIC (M. aubagnense): 50 µg/mL (≈ 245 µM)
MIC (M. avium): 50 µg/mL (≈ 245 µM)
MIC (M. bolletii): > 100 µg/mL
MIC (M. bovis): 1.6 µg/mL (≈ 7.83 µM)
MIC (M. chitae): 0.2 µg/mL (≈ 0.979 µM)
MIC (M. colombiense): 6.3 µg/mL (≈ 30.8 µM)
MIC (M. conceptionense): 50 µg/mL (≈ 245 µM)
MIC (M. fortuitum): 12.5 µg/mL (≈ 61.2 µM)
MIC (M. gilvum): 12.5 µg/mL (≈ 61.2 µM)
MIC (M. goodie): 0.8 µg/mL (≈ 3.92 µM)
MIC (M. gordonae): > 100 µg/mL
MIC (M. heraklionease): 100 µg/mL (≈ 489 µM)
MIC (M. intracellulare): 3.1 µg/mL (≈ 15.2 µM)
MIC (M. kansasii): 1.6 µg/mL (≈ 7.83 µM)
MIC (M. kyorinense): 50 µg/mL (≈ 245 µM)
MIC (M. marinum): 3.1 µg/mL (≈ 15.2 µM)
MIC (M. marseiliense): 100 µg/mL (≈ 489 µM)
MIC (M. massiliense): 100 µg/mL (≈ 489 µM)
MIC (M. neoaurum): 6.3 µg/mL (≈ 30.8 µM)
MIC (M. peregrinum): 3.1 µg/mL (≈ 15.2 µM)
MIC (M. phlei): 1.6 µg/mL (≈ 7.83 µM)
MIC (M. phocaicum): 0.4 µg/mL (≈ 1.96 µM)
MIC (M. smegmatis): 0.8 µg/mL (≈ 3.92 µM)
MIC (M. szulgai): 3.1 µg/mL (≈ 15.2 µM)
MIC (M. xenopi): 25 µg/mL (≈ 122 µM)

COC(=O)[C@H]1CCC(=O)N1Cc1cc2ccc(OC)cc2c2cc(OC)c(OC)cc12 [PP1R]
MIC (M. tuberculosis H37Rv): > 100 µg/mL
MIC (M. tuberculosis H37Ra): > 100 µg/mL

CCCCOc1ccc2cc(CN3C(=O)CC[C@@H]3C(=O)OC)c3cc(OC)c(OC)cc3c2c1 [PP2R]
MIC (M. tuberculosis H37Rv): > 100 µg/mL
MIC (M. tuberculosis H37Ra): > 100 µg/mL

COC(=O)[C@H]1CCC(=O)N1Cc1cc2ccc(OCc3ccccc3)cc2c2cc(OC)c(OC)cc12 [PP3R, Methyl (R)-1-{[3-(Benzyloxy)-6,7-dimethoxy-9-phenanthryl]methyl}-5-oxopyrrolidine-2-carboxylate]
MIC (M. tuberculosis H37Rv): > 100 µg/mL
MIC (M. tuberculosis H37Ra): > 100 µg/mL

NC(=O)c1cnccn1 [PZA, pyrazinamide]
MIC (M. tuberculosis H37Rv): > 100 µg/mL
MIC [1]: > 100 µg/mL
MIC ([1]; TDR-1): > 100 µg/mL
MIC ([1]; TDR-2): > 100 µg/mL
MIC ([1]; TDR-3): > 100 µg/mL
MIC (M. abscessus): > 100 µg/mL
MIC (M. arupense): > 100 µg/mL
MIC (M. aubagnense): > 100 µg/mL
MIC (M. avium): > 100 µg/mL
MIC (M. bolletii): > 100 µg/mL
MIC (M. bovis): > 100 µg/mL
MIC (M. chitae): > 100 µg/mL
MIC (M. colombiense): > 100 µg/mL
MIC (M. conceptionense): > 100 µg/mL
MIC (M. fortuitum): > 100 µg/mL
MIC (M. gilvum): > 100 µg/mL
MIC (M. goodie): > 100 µg/mL
MIC (M. gordonae): > 100 µg/mL
MIC (M. heraklionease): > 100 µg/mL
MIC (M. intracellulare): > 100 µg/mL
MIC (M. kansasii): > 100 µg/mL
MIC (M. kyorinense): > 100 µg/mL
MIC (M. marinum): > 100 µg/mL
MIC (M. marseiliense): > 100 µg/mL
MIC (M. massiliense): > 100 µg/mL
MIC (M. neoaurum): > 100 µg/mL
MIC (M. peregrinum): > 100 µg/mL
MIC (M. phlei): > 100 µg/mL
MIC (M. phocaicum): > 100 µg/mL
MIC (M. smegmatis): > 100 µg/mL
MIC (M. szulgai): > 100 µg/mL
MIC (M. xenopi): > 100 µg/mL

[N-]=[N+]=[N-].[Na+] [SA]
Individual revertant colony counts ([2]; TA100, 1.5 μg/plate): 734 colonies per plate and 732 colonies per plate
Mean revertant colonies ([2]; TA100, 1.5 μg/plate): 733 colonies per plate
Individual revertant colony counts ([2]; TA1535, 1.5 μg/plate): 588 colonies per plate and 535 colonies per plate
Mean revertant colonies ([2]; TA1535, 1.5 μg/plate): 562 colonies per plate

CN[C@H](CC(C)C)C(=O)N[C@H]1C(=O)N[C@@H](CC(N)=O)C(=O)N[C@H]2C(=O)N[C@H]3C(=O)N[C@H](C(=O)N[C@H](C(=O)O)c4cc(O)cc(O)c4-c4cc3ccc4O)[C@H](O)c3ccc(c(Cl)c3)Oc3cc2cc(c3O[C@@H]2O[C@H](CO)[C@@H](O)[C@H](O)[C@H]2O[C@H]2C[C@](C)(N)[C@H](O)[C@H](C)O2)Oc2ccc(cc2Cl)[C@H]1O [VAN, vancomycin]
beta set-significance analysis, pair-wise comparison of gut microbiome (intestinal microbiome): significant
difference in phylum or class level taxa compared to drug-free group (intestinal microbiome): significant differences
phylogenetic diversity compared to drug-free control group (intestinal microbiome): significantly decreased
